From patent publication US7771712B2, “Composition for attracting blood sucking arthropods and fruit flies” (priority 2002, dated 2010)

Test system: female A. aegypti
Experiment: Y-tube olfactometer, single compound added to index finger scent against pure finger
Type: in vivo, Aedes aegypti
Description: In this example, the effect of adding certain compounds to the scent of a finger of a human volunteer was tested, using the set-up as described for example 1. The right and left index finger of each test person were tested in direct competition with simultaneous addition of a single compound to one finger; Martina (A) is highly, Martin (B) medium, and Doris (C) low attractive. The test components were alternately added to the right or to the left finger, respectively. Bars (means of 16 trials±S.E.M.) represent the percentage of mosquitoes trapped in the respective upwind chamber. Black bars represent the pure finger, white bars the mixture of finger plus the odor stimulus indicated below the bar; stimulus labels as described in FIG. 3A; asterisks indicate a significant preference (P<0.05, t-test for paired samples).
A) is a top view of the olfactometer for testing mosquitoes' odour preference. The spatial distribution of odourants in the air are outlined according to the appearance of TiCl4 smoke, which was injected into the olfactometer instead of the odour stimulus. In the arms of the olfactometer the smoke was homogeneous distributed^20. More turbulent odour eddies and filaments emerged in the rectangular chamber, although a steep gradient between both air streams can still be observed in the joined straight tube. For each test, 20 female A. aegypti mosquitoes were used from cultures of Bayer AG in Monheim, 5-15 days old, which had no blood meal before. Details of the olfactometer and the experimental procedure are described elsewhere (Geier, M. & Boeckh, J. Entomol. exp. appl. 92, 9-19 (1999); Geier, M., Bosch, O. J. & Boeckh, J. Chem. Sens. 24, 647-653 (1999)).
At stimulus onset, 20 mosquitoes in the start chamber are set free to fly through the olfactometer. During their zig zag flight through the straight tube they encounter alternately air streams from either arm. Following the favoured air stream during upwind flight the mosquitoes enter the respective upwind chamber where they are counted 30 s after stimulus onset. […]

Compound: N [Ammonia+100, Ammonia]
- Attractiveness of finger scent plus compound against pure finger (FIG. 4 A, highly attractive person): less attractive

Compound: CC(=O)O [acetic acid, Acetic acid]
- Attractiveness of finger scent plus compound against pure finger (up to 50-fold higher concentration than in the standard blend, any of the persons): did not change the attractiveness

Compound: CCCCCC(=O)O [capronic acid, Caproic acid]
- Attractiveness of finger scent plus compound against pure finger (FIG. 4 C, low attractive person, all concentrations): more attractive
